From patent publication US6603023B2 (priority 1996, dated 2003)
pIC50: −log10 of the molar value. Read-outs that look alike come from different tables or passages of the source. Marks after values point to notes of the source that are not given here.

Experiments:
CCRF-CEM/VBL100 = assay: cells; assay type: cell-based, human
Description: (§1) The drug-resistant cell lines were continuously cultured in the presence of the selecting agent, AD, DX, VBL or VM to maintain the drug resistant phenotypes. […] All cells were cultured in RPMI 1640-10% FBS at 37° C. 5% CO2 (see below).
(§2) The cells were cultured at an initial density of 5×10^4 cells/mL. They were maintained in a 5% CO2-humidified atmosphere at 37° C. in RPMI-1640 medium (GIBCO-BRL, Gaithersburg, Md.) containing penicillin (100 U/mL), streptomycin ([…]) (GIBCO-BRL) and 10% heat inactivate fetal bovine serum. Culture for cell suspension (such as for CCRF-CEM, P388 and sublines), were performed by the XTT-microculture tetrazonium method (Scudiero, D. A. et al., Cancer Res. 1988, 48, 4827-4833) in duplicate in 96-well microtiter plates.
(§3) 2′,3′-Bis(methoxy-4-nitro-5-sufophenyl)-5-[(phenylamino)carbonyl]2H-tetrazolium hyudroxide (XTT) was prepared at 1 mg/mL in prewarmed (37° C.) medium without serum. Phenazine methosulfate (PMS) and fresh XTT were mixed together to obtain 0.025 mM PMS-XTT solution (25 μL of the stock 5 mM PMS was added per 5 mL of 1 mg/mL XTT). Following a 72 h incubation, 50 μL of the assay aliquots were added to each well of the cell culture. After incubation at 37° C. for 4 h, absorbance at 450 nm and 630 nm was measured with a microplate reader (EL340, Bio-Tek Instruments, Inc., Winooski, Vt.).

CCRF-CEM/VM1 = assay: cells; assay type: cell-based, human; settings: Table 6
Description: as §1, §2, §3

[1] = tested on: CCRF-CEM human T-cell acute lymphoblastic leukemia cell line; assay: XTT cytotoxicity (cell growth inhibition), CCRF-CEM
Description: The DC-3F hamster lung fibroblast cell line and its actinomycin D-selected sublines (DC-3F/ADII and DC-3F/ADX) were obtained from the Memorial Sloan-Kettering Cancer Center (MSKCC).
as §1, §2, §3

[2] = tested on: human mammary carcinoma MX-1 xenograft; settings: MX-1; i.p.; comparison with Camptothecin, VBL, EpoB (order wraps over rows r7-r8)
Description: (§4) DMSO was used as a vehicle for epothilones. Each mouse received ≦40 μL DMSO in all experiments.
(§5) Athymic nude mice (nu/nu) were used for MX-1 and MCF-7/Adr human mammary carcinoma xenografts. Mice were obtained from Taconic Laboratory Animals and Service (Germantown, N.Y.: outbred, Swiss background).

[3] = tested on: MDR human mammary adenocarcinoma MCF-7/Adr xenograft; assay: in vivo
Description: as §4, §5

[4] = tested on: Human Lymphoblastic Leukemia CCRF-CEM; assay: CCRF-CEM xenograft in nude mice, i.v. 6 h infusion; assay type: in vivo; settings: for Average Body Weight, Day 21: initial weight
[5] = Table 6, single determinations, read-out: IC50
[6] = single determinations, read-out: IC50
[7] = camptothecin 3 mg/kg i.p. Q2Dx5 from day 8, day 11
[8] = camptothecin 3 mg/kg i.p. Q2Dx5 from day 8, day 13
[9] = camptothecin 3 mg/kg i.p. Q2Dx5 from day 8, day 15
[10] = camptothecin 3 mg/kg i.p. Q2Dx5 from day 8, day 17
[11] = high doses: Taxol 12, Adriamycin 3, Camptothecin 3.0 mg/kg i.p. day 8,10,12,14,16
[12] = Dose DesoxyepoB 40, Taxol 20, i.v. infusion 6 hr on day 21,23,25,27
[13] = Table 26, Dose Q2D x 4: DesoxyepoB 40, Taxol 20

CC(=Cc1csc(C)n1)C1CC2OC2CCCCC(O)C(C)C(=O)C(C)(C)C(O)CC(=O)O1 (mixture of isomers) [8-desmethyl Mix-cis Epo]
pIC50 (CCRF-CEM/VBL100; [5]): 5.23
pIC50 (CCRF-CEM/VM1; [6]): 5.59
pIC50 ([1]; Table 6, single determinations): 6.02

CC(=Cc1csc(C)n1)C1CC=CCCCC(C)C(O)C(C)C(=O)C(C)(C)C(O)CC(=O)O1 (stereo not drawn) [#4]
pIC50 (CCRF-CEM/VBL100; Table 6, single determinations, listed as 4, read-out: IC50): 4.37
pIC50 (CCRF-CEM/VBL100; Table 7, CEM/VBL, listed as 4, read-out: IC50): 4.36
pIC50 (CCRF-CEM/VM1; single determinations, listed as 4, read-out: IC50): 5.56
pIC50 ([1]; Table 6, single determinations, listed as 4): 5.67
pIC50 ([1]; Table 7, CEM, listed as 4): 5.68

CC(=Cc1csc(C)n1)C1CC2OC2CCCC(C)C(O)C(C)C(=O)C(C)(C)C(O)CC(=O)O1 (stereo not drawn) [#5]
pIC50 (CCRF-CEM/VBL100; [5]): 4.45
pIC50 (CCRF-CEM/VBL100; Table 7, CEM/VBL, read-out: IC50): 4.45
pIC50 (CCRF-CEM/VM1; [6]): 4.01
pIC50 ([1]; Table 6, single determinations): < 4.70
pIC50 ([1]; Table 7, CEM): < 4.70

CC(=Cc1csc(C)n1)C1CC=CCCCC(C)C(O)C(C)C(=O)C(C)(C)C(O)CC(=O)O1 (stereo not drawn) [#6]
pIC50 (CCRF-CEM/VBL100; Table 6, single determinations, listed as 6, read-out: IC50): 7.46
pIC50 (CCRF-CEM/VBL100; Table 7, CEM/VBL, listed as 6, read-out: IC50): 7.46
pIC50 (CCRF-CEM/VBL100; read-out: IC50): 7.46
pIC50 (CCRF-CEM/VM1; single determinations, listed as 6, read-out: IC50): 6.95
pIC50 [1]: 7.28
Rel. Value (potency relative to Epo B) ([1]; CCRF-CEM leukemic cells): 1/149
pIC50 ([1]; Table 6, single determinations, listed as 6): 7.28
pIC50 ([1]; Table 7, CEM, listed as 6): 7.28

C/C(=C\c1csc(C)n1)[C@@H]1C[C@@H]2O[C@]2(C)CCC[C@H](C)[C@H](O)[C@@H](C)C(=O)C(C)(C)[C@@H](O)CC(=O)O1 [#8, epothilone B]
pIC50 (CCRF-CEM/VBL100; Table 5, CCRF-CEM/VLB, single determinations, read-out: IC50): 8.77
pIC50 (CCRF-CEM/VBL100; Table 6, read-out: IC50 (mean ± of determinations, in parentheses)): 8.67
pIC50 (CCRF-CEM/VBL100; Table 6, single determinations, listed as 8, read-out: IC50): 8.54
pIC50 (CCRF-CEM/VBL100; Table 6, single determinations, listed as EPOTHILONE B (Synthetic), read-out: IC50): 8.51
pIC50 (CCRF-CEM/VBL100; Table 7, CEM/VBL, listed as synthetic epothilone B, read-out: IC50): 8.53
pIC50 (CCRF-CEM/VM1; read-out: IC50 (mean ± of determinations, in parentheses)): 8.90
pIC50 (CCRF-CEM/VM1; single determinations, listed as 8, read-out: IC50): 8.36
pIC50 (CCRF-CEM/VM1; single determinations, listed as EPOTHILONE B (Synthetic), read-out: IC50): 8.74
pIC50 ([1]; Table 5, single determinations): 9.38
pIC50 ([1]; Table 6, single determinations, listed as 8): 9.09
pIC50 ([1]; Table 6, single determinations, listed as EPOTHILONE B (Synthetic)): 9.26
pIC50 ([1]; Table 7, CEM, listed as synthetic epothilone B): 9.09
pIC50 ([1]; read-out: IC50 (mean ± of determinations, in parentheses), Table 6): 9.46

C/C(=C\c1csc(C)n1)[C@@H]1C[C@@H]2O[C@]2(C)CCC[C@H](C)[C@H](O)[C@@H](C)C(=O)C(C)(C)[C@@H](O)CC(=O)O1 [#9, epothilone B]
relative resistance (fold) vs parent cell line (CCRF-CEM/VBL100; Table 6): (7.0X)
pIC50 (CCRF-CEM/VBL100; Table 6, single determinations, listed as 9, read-out: IC50): 8.59
pIC50 (CCRF-CEM/VBL100; Table 6, single determinations, listed as EPOTHILONE B (Natural), read-out: IC50): 8.77
pIC50 (CCRF-CEM/VBL100; Table 7, CEM/VBL, listed as natural epothitone B, read-out: IC50): 8.58
pIC50 (CCRF-CEM/VM1; single determinations, listed as 9, read-out: IC50): 8.74
pIC50 (CCRF-CEM/VM1; single determinations, listed as EPOTHILONE B (Natural), read-out: IC50): 9.11
pIC50 ([1]; Table 6, single determinations, listed as 9): 9.36
pIC50 ([1]; Table 6, single determinations, listed as EPOTHILONE B (Natural)): 9.77
pIC50 ([1]; Table 7, CEM, listed as natural epothitone B): 9.36

CC[C@@]1(O)C(=O)OCc2c1cc1n(c2=O)Cc2cc3ccccc3nc2-1 [Campothecin, camptothecin]
Therapeutic effect Rank Order [2]: dEpoB > Camptothecin >
toxicity ([3]; CPT 3 mg/kg Q2Dx5 i.p.): moderate toxicity without lethality
Therapeutic effect Rank Order ([3]; MCF-7/Adr, i.p. (order wraps over rows r13-r14)): dEpoB >> Camptothecin >
Toxicity Death ([3]; camptothecin 3 mg/kg i.p. Q2Dx5 from day 8): 0/6
Average Body Weight Change [3, 7]: -0.6 g
Average Tumor Size (T/C) [3, 7]: 0.95
Average Body Weight Change [3, 8]: -0.4 g
Average Tumor Size (T/C) [3, 8]: 0.76
Average Body Weight Change [3, 9]: -0.8 g
Average Tumor Size (T/C) [3, 9]: 0.61
Average Body Weight Change [3, 10]: -0.9 g
Average Tumor Size (T/C) [3, 10]: 0.43*
tumor size reduction ([3]; camptothecin 3 mg/kg, day 17): 57%
Average Body Weight (change), Day 11 [3, 11]: -0.6 g
Average Body Weight (change), Day 13 [3, 11]: -0.4 g
Average Body Weight (change), Day 15 [3, 11]: -0.8 g
Average Body Weight Change, Day 17 [3, 11]: -0.9 g
Average Tumor Volume (T/C), Day 11 [3, 11]: 0.95 T/C
Average Tumor Volume (T/C), Day 13 [3, 11]: 0.76 T/C
Average Tumor Volume (T/C), Day 15 [3, 11]: 0.61 T/C
Average Tumor Volume (T/C), Day 17 [3, 11]: 0.43 T/C
Died [3, 11]: 0/6
Average Body Weight, Day 8 ([3]; initial weight, first treatment day, high doses: Taxol 12, Adriamycin 3, Camptothecin 3.0 mg/kg i.p. day 8,10,12,14,16): 24.5 g

C/C1=C/C[C@@H](/C(C)=C/c2csc(C)n2)OC(=O)C[C@H](O)C(C)(C)C(=O)[C@H](C)[C@@H](O)[C@@H](C)CCC1 [DesoxyepoB]
Average Body Weight Changes, Day 23 [4, 12]: -1.4 g
Average Body Weight Changes, Day 25 [4, 12]: -3.6 g
Average Body Weight Changes, Day 27 [4, 12]: -3.9 g
Average Body Weight Changes, Day 29 [4, 12]: -5.2 g
Average Body Weight Changes, Day 31 [4, 12]: -4.2 g
Average Body Weight Changes, Day 33 [4, 12]: -3.1 g
Average Body Weight Changes, Day 35 [4, 12]: -2.3 g
Average Body Weight Changes, Day 37 [4, 12]: -1.2 g
Average Body Weight Changes, Day 39 [4, 12]: -0.2 g
Average Body Weight Changes, Day 41 [4, 12]: +0.9 g
Average Tumor Size (T/C), Day 21 [4, 12]: 1.10 T/C
Average Tumor Size (T/C), Day 23 [4, 12]: 0.73 T/C
Average Tumor Size (T/C), Day 25 [4, 12]: 0.31 T/C
Average Tumor Size (T/C), Day 27 [4, 12]: 0.09 T/C
Average Tumor Size (T/C), Day 29 [4, 12]: 0 T/C
Average Tumor Size (T/C), Day 31 [4, 12]: 0 T/C
Average Tumor Size (T/C), Day 33 [4, 12]: 0 T/C
Average Tumor Size (T/C), Day 35 [4, 12]: 0 T/C
Proportion of Tumor Disappearance (n/total), Day 21 [4, 12]: 0/3
Proportion of Tumor Disappearance (n/total), Day 23 [4, 12]: 0/3
Proportion of Tumor Disappearance (n/total), Day 25 [4, 12]: 0/3
Proportion of Tumor Disappearance (n/total), Day 27 [4, 12]: 0/3
Proportion of Tumor Disappearance (n/total), Day 29 [4, 12]: 3/3
Proportion of Tumor Disappearance (n/total), Day 31 [4, 12]: 3/3
Proportion of Tumor Disappearance (n/total), Day 33 [4, 12]: 3/3
Proportion of Tumor Disappearance (n/total), Day 35 [4, 12]: 3/3
Proportion of Tumor Disappearance (n/total), Day 37 [4, 12]: 1/3
Proportion of Tumor Disappearance (n/total), Day 39 [4, 12]: 1/3
Proportion of Tumor Disappearance (n/total), Day 41 [4, 12]: 0/3
Average Body Weight Change, Day 23 [4, 13]: -1.4 g
Average Body Weight Change, Day 25 [4, 13]: -3.6 g
Average Body Weight Change, Day 27 [4, 13]: -3.9 g
Average Body Weight Change, Day 29 [4, 13]: -5.2 g
Average Body Weight Change, Day 31 [4, 13]: -4.2 g
Average Tumor Size (T/C), Day 23 [4, 13]: 0.68 T/C
Average Tumor Size (T/C), Day 25 [4, 13]: 0.30 T/C
Average Tumor Size (T/C), Day 27 [4, 13]: 0.09 T/C
Average Tumor Size (T/C), Day 29 [4, 13]: 0 T/C
Average Tumor Size (T/C), Day 31 [4, 13]: 0 T/C
Tumor Disappearance [4, 13]: 3/3
Average Body Weight, Day 21 [4, 13]: 26.6 g
Average Body Weight, Day 21 [4, 12]: 26.6 g
